pIC50: −log10 of the molar value.
test: Inhibitory activity against translocase (Mra Y) obtained from bacteria.

| pIC50 | SMILES |
| --- | --- |
| 4.10 | NC[C@H]1O[C@@H](OC[C@H]2O[C@@H](n3ccc(=O)[nH]c3=O)C[C@@H]2O)[C@H](O)[C@@H]1O |
| 3.92 | NC[C@H]1O[C@@H](OC[C@@H]2CC[C@H](n3ccc(=O)[nH]c3=O)O2)[C@H](O)[C@@H]1O |
| 5.00 | NC[C@H]1O[C@@H](OC[C@@H]2C[C@@H](O)[C@H](n3ccc(=O)[nH]c3=O)O2)[C@H](O)[C@@H]1O |
| 3.94 | NC[C@H]1O[C@@H](OC[C@H]2O[C@@H](n3ccc(=O)[nH]c3=O)[C@H](O)[C@@H]2O)C[C@@H]1O |
| 4.30 | NC[C@H]1O[C@@H](OC[C@H]2O[C@@H](n3ccc(=O)[nH]c3=O)[C@H](O)[C@@H]2O)[C@H](O)[C@@H]1O |
| 5.30 | NC[C@H]1O[C@@H](O[C@@H](CO)[C@H]2O[C@@H](n3ccc(=O)[nH]c3=O)[C@H](O)[C@@H]2O)[C@H](O)[C@@H]1O |
| < 3.00 | NC[C@@H]1C[C@@H](O)[C@H](OC[C@H]2O[C@@H](n3ccc(=O)[nH]c3=O)[C@H](O)[C@@H]2O)O1 |
